One assay relates to HT29 cells. Description: CyQuant cell proliferation activity test, HT29. The class given is cell-based. To be noted: Homo sapiens, HT-29, 72 h, HT29 2000 cells per well, 3 days incubation, initial concentration 3000 nM, IC50 by XLFIT, read-out: HT-29 Cell Viability_IC50_nM. Here is the method: Materials and Cells: HT29 cells were purchased from Nanjing Cobioer Biosciences Co., Ltd.; RPM-1640 medium, fetal bovine serum, Trypsin-EDTA (0.25%), DMSO, 96-well plates, and CyQuant reagents were purchased from ThermoFisher (USA).
Cell Culture: Culture HT29 cells with RPMI-1640 containing 10% fetal bovine serum under the condition of 37° C. and 5% CO2. Only cells in the logarithmic growth phase can be used for the test.
Cell Proliferation Activity Test: Use the CyQuant reagent to detect the proliferation inhibitory activity of compounds on HT29 cells. Adjust the cell density and inoculate 100 μL per well into the 96-well plate (HT29 at 2000 cells per well), then incubate overnight under the condition of 37° C. and […]. Add compounds of various target concentrations (initial concentration of 3000 nM, 3-fold dilution, 9 concentration gradients), and make the DMSO content 0.20%. Incubate the cell plates at 37° C. and 5% CO2 for 3 days. Incubate with CyQuant reagent for 1 h, read the plate by Envision, and calculate IC50 using XLFIT.

Assay [1] concerns the target T1, Human KIF18A (amino acid sequence 1-417) (Homo sapiens, UniProt Q8NI77).
T1 construct: purchased Viva Biotech (Shanghai) Ltd
Description: Enzyme activity detection experiment (ADP-Glo, KIF18A with tubulin and ATP). The class given is biochemical. To be noted: tubulin 60 μg/mL, ATP 25 μM, KIF18A protein 2.5 nM, 120 minutes at ambient temperature, ADP-Glo chemiluminescence. Here is the method:
Materials: Human KIF18A (amino acid sequence 1-417) was obtained from Viva Biotech (Shanghai) Ltd., and the ADP-Glo™ protein kinase kit was acquired from Promega, USA. Tubulin was sourced from Cytoskeleton, USA, while a 384-well assay plate and the Envision multifunctional microplate reader were obtained from PerkinElmer, USA.
Enzyme activity detection: The compound powder in DMSO was firstly dissolved to prepare a 10 mM stock solution. Next, gradient dilutions were prepared in the microplate to achieve final concentrations of […]. Sequentially, 2.5 μL of tubulin (60 μg/mL), the compound, ATP (25 μM), and KIF18A protein (2.5 nM) were added to each well, and the reaction was incubated at ambient temperature for 120 minutes. After the reaction, 10 μL of ADP-Glo™ reagent was added to each well and incubated at ambient temperature for 30 minutes. Subsequently, 20 μL of detection reagent was added to each well and incubated for an additional 30 minutes in the dark. Finally, chemiluminescence detection was performed using the PerkinElmer Envision multifunctional microplate reader.
A general note: In ADP-Glo the light output rises with the ADP produced.

In another assay the test system is OVCAR3 cells. Description: Cell proliferation activity test, OVCAR3 (CyQUANT Direct). In kind it is cell-based. Conditions: Homo sapiens, OVCAR-3, 72 h, 3 days incubation, CyQUANT fluorescence detection, read-out: OVCAR-3 Cell Viability_IC50_nM. Here is the method:
Materials and Cells: OVCAR3 cells were purchased from Nanjing Cobioer Biosciences Co., Ltd. RPMI-1640 medium, fetal bovine serum, and the CyQUANT Direct Cell Proliferation Assay kit were purchased from Thermo Fisher Scientific, USA; 96-well cell culture plates were sourced from Corning, USA.
Cell Culture: Culture OVCAR3 cells with RPMI-1640 medium containing […] and incubate them in a […] incubator at 37° C. Only cells in the logarithmic growth phase can be used for the test.
Inoculate OVCAR3 cells into a 96-well cell culture plate at 90 μL per well and incubate overnight in a […] incubator at 37° C. Dissolve the compound powder in DMSO to prepare a stock solution of 10 mM. Then perform gradient dilution for the compounds in the microplate to achieve a final concentration of 0-10 μM. Add 10 μL of cell culture medium containing compounds to each well to make the final DMSO content 0.20%. Incubate the cell plates in a […] incubator at 37° C. for 3 days. Add 100 μL of CyQUANT detection reagent to each well, react at 37° C. for 60 min, and perform fluorescence detection using the PerkinElmer Envision.

T1 sequence (Q8NI77 1-417): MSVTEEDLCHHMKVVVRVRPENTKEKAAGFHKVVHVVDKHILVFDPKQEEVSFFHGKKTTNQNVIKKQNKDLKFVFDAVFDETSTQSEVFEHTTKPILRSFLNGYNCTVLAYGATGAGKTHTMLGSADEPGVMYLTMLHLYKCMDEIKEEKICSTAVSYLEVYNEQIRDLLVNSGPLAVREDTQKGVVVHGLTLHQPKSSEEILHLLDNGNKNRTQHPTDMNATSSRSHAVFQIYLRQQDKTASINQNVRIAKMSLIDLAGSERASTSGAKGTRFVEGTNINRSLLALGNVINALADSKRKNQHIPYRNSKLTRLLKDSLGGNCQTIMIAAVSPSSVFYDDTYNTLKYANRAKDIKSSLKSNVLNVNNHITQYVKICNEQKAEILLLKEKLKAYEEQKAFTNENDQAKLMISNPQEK
T1 sequence (Q2XVP4 whole entry partner): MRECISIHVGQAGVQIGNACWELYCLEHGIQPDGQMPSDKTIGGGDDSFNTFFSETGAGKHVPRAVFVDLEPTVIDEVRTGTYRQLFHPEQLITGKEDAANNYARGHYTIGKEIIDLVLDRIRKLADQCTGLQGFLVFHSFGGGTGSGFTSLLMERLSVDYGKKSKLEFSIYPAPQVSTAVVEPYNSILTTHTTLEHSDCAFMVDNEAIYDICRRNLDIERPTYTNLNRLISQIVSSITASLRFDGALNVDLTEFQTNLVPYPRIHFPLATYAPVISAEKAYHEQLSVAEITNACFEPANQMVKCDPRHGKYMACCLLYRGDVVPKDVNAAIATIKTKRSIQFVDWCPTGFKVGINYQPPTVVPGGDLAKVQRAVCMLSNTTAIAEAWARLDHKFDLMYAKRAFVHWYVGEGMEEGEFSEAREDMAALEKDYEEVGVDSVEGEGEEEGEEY
T1 sequence (P02554 whole entry partner): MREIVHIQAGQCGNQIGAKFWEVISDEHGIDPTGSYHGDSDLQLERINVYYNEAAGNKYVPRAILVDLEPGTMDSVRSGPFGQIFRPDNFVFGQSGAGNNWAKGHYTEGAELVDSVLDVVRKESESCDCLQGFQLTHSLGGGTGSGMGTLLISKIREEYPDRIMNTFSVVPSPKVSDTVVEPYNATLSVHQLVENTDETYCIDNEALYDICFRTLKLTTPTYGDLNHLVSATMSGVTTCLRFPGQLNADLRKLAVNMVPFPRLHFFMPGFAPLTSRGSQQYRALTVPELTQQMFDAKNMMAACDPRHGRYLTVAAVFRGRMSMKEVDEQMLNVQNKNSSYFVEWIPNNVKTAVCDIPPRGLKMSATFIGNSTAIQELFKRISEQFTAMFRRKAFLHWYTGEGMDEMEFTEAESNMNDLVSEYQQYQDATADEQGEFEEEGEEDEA

For `O=S(=O)(CCO)Nc1ccc(C=C(F)c2cc(N3CCC(F)(F)CC3)c3ncccc3c2)c(N2CCC3(CC2)CC3)c1` [Example 1, N-(4-(2-(8-(4,4-difluoropiperidin-1-yl)quinolin-6-yl)-2-fluorovinyl)-3-(6-azaspiro[2.5]octan-6-yl)phenyl)-2-hydroxyethane-1-sulfonamide], the IC50 with HT29 cells was 629 nM; in assay [1], over 3000 nM; in the assay on OVCAR3 cells it was 474 nM.

As for `O=S(=O)(CCO)Nc1ccc(/C(F)=C/c2cc(N3CCC(F)(F)CC3)c3ncccc3c2)c(N2CCC3(CC2)CC3)c1` [Example 2, (Z)-N-(4-(2-(8-(4,4-difluoropiperidin-1-yl)quinolin-6-yl)-1-fluorovinyl)-3-(6-azasppiro[2.5]octan-6-yl)phenyl)-2-hydroxyethane-1-sulfonamide], the IC50 was 811 nM in the assay with HT29 cells, over 3000 nM in assay [1] and 766 nM in the assay on OVCAR3 cells.

With `O=S(=O)(CCO)Nc1ccc(/C(F)=C\c2cc(N3CCC(F)(F)CC3)c3ncccc3c2)c(N2CCC3(CC2)CC3)c1` [Example 3, (E)-N-(4-(2-(8-(4,4-difluoropiperidin-1-yl)quinolin-6-yl)-1-fluorovinyl)-3-(6-azasppiro[2.5]octan-6-yl)phenyl)-2-hydroxyethane-1-sulfonamide], the IC50 in the assay with HT29 cells worked out at 210 nM; in assay [1] it was 852 nM; in the assay on OVCAR3 cells, 181 nM.

Consider `Cc1cc(-c2nnc(-c3ccc(NS(=O)(=O)CCO)cc3N3CCC4(CC3)CC4)[nH]2)nc(N2CCC(F)(F)CC2)n1` [Example 4, N-(4-(5-(2-(4,4-difluoropiperidin-1-yl)-6-methylpyrimidin-4-yl)-4H-1,2,4-triazol-3-yl)-3-(6-azaspiro[2.5]octan-6-yl)phenyl)-2-hydroxyethane-1-sulfonamide], for which the IC50 with HT29 cells is 77 nM; in assay [1] it was 38 nM; with OVCAR3 cells, 62 nM.

With `Cc1cc(-c2noc(-c3ccc(NS(=O)(=O)CCO)cc3N3CCC4(CC3)CC4)n2)nc(N2CCC(F)(F)CC2)n1` [Example 7], the IC50 in the assay on HT29 cells is over 3000 nM; in assay [1], 102 nM; in the assay on OVCAR3 cells it was 1180 nM.

In the case of `Cc1cc(-c2nnn(-c3ccc(NS(=O)(=O)CCO)cc3N3CCC4(CC3)CC4)n2)nc(N2CCC(F)(F)CC2)n1` [Example 8, N-(4-(5-(2-(4,4-difluoropiperidin-1-yl)-6-methylpyrimidin-4-yl)-2H-tetrazol-2-yl)-3-(6-azaspiro[2.5]octan-6-yl)phenyl)-2-hydroxyethane-1-sulfonamide], the IC50 in the assay on HT29 cells amounted to 250 nM; in assay [1] it was 775 nM; in the assay with OVCAR3 cells it was 496 nM.

`Cc1cc(-n2nnc(-c3ccc(NS(=O)(=O)CCO)cc3N3CCC4(CC3)CC4)n2)cc(N2CCC(F)(F)CC2)n1` [Example 9, N-(4-(2-(2-(4,4-difluoropiperidin-1-yl)-6-methylpyridin-4-yl)-2H-tetrazol-5-yl)-3-(6-azaspiro[2.5]octan-6-yl)phenyl)-2-hydroxyethane-1-sulfonamide]: the IC50 in the assay with HT29 cells turned out to be 165 nM; in assay [1] it was 312 nM; with OVCAR3 cells, 107 nM.

For `Cc1cc(-c2cn(-c3ccc(NS(=O)(=O)CCO)cc3N3CCC4(CC3)CC4)cn2)nc(N2CCC(F)(F)CC2)n1` [Example 10, N-(4-(4-(2-(4,4-difluoropiperidin-1-yl)-6-methylpyrimidin-4-yl)-1H-imidazol-1-yl)-3-(6-azaspiro[2.5]octan-6-yl)phenyl)-2-hydroxyethane-1-sulfonamide], the IC50 in the assay with HT29 cells was found to be 56 nM; in assay [1], 251 nM; with OVCAR3 cells, 46 nM.

Turning to `COc1cc(-c2cn(-c3ccc(NS(=O)(=O)CCO)cc3N3CCC4(CC3)CC4)cn2)nc(N2CCC(F)(F)CC2)n1` [Example 11, N-(4-(4-(2-(4,4-difluoropiperidin-1-yl)-6-methoxypyrimidin-4-yl)-1H-imidazol-1-yl)-3-(6-azaspiro[2.5]octan-6-yl)phenyl)-2-hydroxyethane-1-sulfonamide], the IC50 was 319 nM in the assay with HT29 cells, 252 nM in assay [1] and 164 nM in the assay with OVCAR3 cells.

`Cc1cc(-n2cnc(-c3ccc(NS(=O)(=O)CCO)cc3N3CCC4(CC3)CC4)c2)nc(N2CCC(F)(F)CC2)n1` [Example 12, N-(4-(1-(2-(4,4-difluoropiperidin-1-yl)-6-methylpyrimidin-4-yl)-1H-imidazol-4-yl)-3-(6-azaspiro[2.5]octan-6-yl)phenyl)-2-hydroxyethane-1-sulfonamide]: the figures for the IC50 (with HT29 cells; in assay [1]; in the assay with OVCAR3 cells) were 568 nM, over 3000 nM and 464 nM, respectively.

For `Cc1cc(-n2cnc(-c3ccc(NS(=O)(=O)CCO)cc3N3CCC4(CC3)CC4)c2)cc(N2CCC(F)(F)CC2)n1` [Example 13, N-(4-(1-(2-(4,4-difluoropiperidin-1-yl)-6-methylpyridin-4-yl)-1H-imidazol-4-yl)-3-(6-azaspiro[2.5]octan-6-yl)phenyl)-2-hydroxyethane-1-sulfonamide], the IC50 turned out to be 444 nM in the assay with HT29 cells, 1280 nM in assay [1] and 472 nM with OVCAR3 cells.

As for `Cc1cc(-c2nnc(-c3ccc(NS(=O)(=O)CCO)cc3N3CCC4(CC3)CC4)s2)nc(N2CCC(F)(F)CC2)n1` [Example 14, N-(4-(5-(2-(4,4-difluoropiperidin-1-yl)-6-methylpyrimidin-4-yl)-1,3,4-thiadiazol-2-yl)-3-(6-azaspiro[2.5]oct-6-yl)phenyl)-2-hydroxyethane-1-sulfonamide], the results for the IC50 (in the assay on HT29 cells; in assay [1]; with OVCAR3 cells) were 88 nM, 158 nM and 145 nM, respectively.

On to `Cc1cc(-c2nnc(-c3ccc(NS(=O)(=O)CCO)cc3N3CCC4(CC3)CC4)o2)nc(N2CCC(F)(F)CC2)n1` [Example 15, N-(4-(5-(2-(4,4-difluoropiperidin-1-yl)-6-methylpyrimidin-4-yl)-1,3,4-oxadiazol-2-yl)-3-(6-azaspiro[2.5]octan-6-yl)phenyl)-2-hydroxyethane-1-sulfonamide], for which the results for the IC50 (in the assay with HT29 cells; in assay [1]; in the assay on OVCAR3 cells) were 60 nM, 60 nM and 61 nM, respectively.

Take `Cc1cc(-c2nnc(-c3ccc(NS(=O)(=O)CCO)cc3N3CCC4(CC3)CC4)o2)nc(NC(C)(C)CO)n1` [Example 16, 2-hydroxy-N-(4-(5-(2-((1-hydroxy-2-methylpropan-2-yl)amino)-6-methylpyrimidin-4-yl)-1,3,4-oxadiazol-2-yl)-3-(6-azaspiro[2.5]octan-6-yl)phenyl)ethane-1-sulfon amide]: the IC50 is 1520 nM in the assay with HT29 cells, 243 nM in assay [1] and 717 nM with OVCAR3 cells.

As to `Cc1cc(-c2nnc(-c3ccc(NS(=O)(=O)CCO)cc3N3CCC4(CC3)CC4)o2)nc(N2CCCC(O)C2)n1` (stereo not drawn) [Example 17, 2-hydroxy-N-(4-(5-(2-(3-hydroxypiperidin-1-yl)-6-methylpyrimidin-4-yl)-1,3,4-oxadiazol-2-yl)-3-(6-azaspiro[2.5]octan-6-yl)phenyl)ethane-1-sulfonamide], the IC50 in the assay with HT29 cells was determined as 337 nM; in assay [1], 46 nM; in the assay on OVCAR3 cells, 74 nM.

As for `Cc1cc(-c2nnc(-c3ccc(NS(=O)(=O)CCO)cc3N3CCC4(CC3)CC4)o2)nc(N2CCO[C@H](C)C2)n1` [Example 18, (R)-2-hydroxy-N-(4-(5-(6-methyl-2-(2-methylmorpholino)pyrimidin-4-yl)-1,3,4-oxadiazol-2-yl)-3-(6-azaspiro[2.5]octan-6-yl)phenyl)ethane-1-sulfonamide], the IC50 in the assay with HT29 cells turned out to be 26 nM; in assay [1], 52 nM; in the assay with OVCAR3 cells, 30 nM.

The values above are taken from patent publication US20250304551A1 (SHANGHAI APEIRON THERAPEUTICS COMPANY LIMITED, priority 2022, published 2025).
